Where a name gives a salt, the structure may show the parent alone.

The target in the assay is T1, human IKK-β (Homo sapiens, UniProt O14920).
T1 construct: A cDNA fragment encoding human IKK-β open reading frame was generated by PCR; His tag (from pcDNA3.1/His C); made in house; host or cells: Sf21 insect cells (baculovirus); substrate made in E. coli
T1 sequence (O14920 1-756): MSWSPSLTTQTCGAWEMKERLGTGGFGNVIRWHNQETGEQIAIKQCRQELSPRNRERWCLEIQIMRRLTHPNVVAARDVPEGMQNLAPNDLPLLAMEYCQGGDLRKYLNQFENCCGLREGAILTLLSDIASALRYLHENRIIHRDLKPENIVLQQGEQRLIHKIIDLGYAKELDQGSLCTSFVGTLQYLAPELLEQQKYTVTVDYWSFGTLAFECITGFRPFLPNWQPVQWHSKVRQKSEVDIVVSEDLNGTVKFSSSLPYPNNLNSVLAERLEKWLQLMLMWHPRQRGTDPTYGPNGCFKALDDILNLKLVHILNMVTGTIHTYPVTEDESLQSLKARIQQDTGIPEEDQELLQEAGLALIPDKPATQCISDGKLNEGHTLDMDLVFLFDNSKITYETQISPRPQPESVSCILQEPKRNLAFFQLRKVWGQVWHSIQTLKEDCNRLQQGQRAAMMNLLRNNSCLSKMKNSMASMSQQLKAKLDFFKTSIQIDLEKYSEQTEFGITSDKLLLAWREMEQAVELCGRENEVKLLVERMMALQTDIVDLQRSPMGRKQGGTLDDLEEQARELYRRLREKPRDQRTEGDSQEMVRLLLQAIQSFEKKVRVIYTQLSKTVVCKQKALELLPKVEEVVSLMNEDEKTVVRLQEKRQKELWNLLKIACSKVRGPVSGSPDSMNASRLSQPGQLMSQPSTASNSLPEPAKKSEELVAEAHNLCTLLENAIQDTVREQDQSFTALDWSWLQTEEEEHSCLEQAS
The assay is described as follows: IKK-β kinase inhibitory assay. Format: biochemical. Conditions: compounds as yielded by solid phase synthesis, purity about 40 to 90%, read-out: In vitro activity grade (In vitro IC50). An excerpt: [IKK-β Kinase Inhibitory Assay]
(1) Preparation of IKK-β Kinase Protein.
• A cDNA fragment encoding human IKK-β open reading frame was generated by PCR with the use of a pair of primers designed from the published sequence (Woronicz J D et al. (1997) Science 278, 866-869). A template was obtained from Quickclone cDNA (Clontech) using Elongase™ Amplification kit (Life Technologies). The DNA fragments generated by PCR were gel-purified and subcloned into pBluescript. The cDNA fragment cloned in pBluescript was inserted into pcDNA3.1/His C KpnI/NotI, and transferred into pVL1393 SmaI/XbaI (Pharmingen) to construct a baculovirus transfer vector. Then the vector, together with the linearized baculovirus (BaculoGold™, Pharmingen) was used to transfect Sf21 cells (Invitrogen, San Diego, Calif.). Generated recombinant baculovirus was cloned and amplified in Sf21 cells, grown in TNM-FH insect cell medium (Life Technologies, Inc.) supplemented with 10% FCS, […] Gentamycin, 0.1% Pluronic F-68 (Life Technologies, Inc.) as suspension culture (200 ml in 1 L Erlenmeyer flask; 27° C.; 130 rpm). Sf21 cells were infected with this amplified virus with a multiplicity of infection of 5 following standard protocols (Crossen R, Gruenwald S (1997) Baculovirus Expression Vector System Instruction Manual, Pharmingen Corporation) and harvested 48 hrs later. The cells were lysed to obtain the produced chimeric protein of IKK-β kinase fused by histidine (His-tagged IKK-beta). (2) The Preparation of Purified GST-IκBα Fusion Proteins • An expression vector containing the nucleotide sequence encoding fusion protein of GST with amino acid residues 1 to 54 of IκBα under the control of an IPTG-inducible promoter was constructed. The expression vector was introduced in E. coli and the transformant was cultured and lysed to obtain a GST-IκBα fusion protein. Then the resulting GST-IκBα fusion protein was purified and biotinated for kinase assay. (3) The Measurement of IKK-β Kinase Activity • The 96-well format kinase assay of IKK-β were performed to test the inhibitory activity of the compounds of the present invention. First, 5 μl of a test compound was put in the presence of 2.5% dimethyl sulfoxide (DMSO) in each well in a U-bottomed 96-well plate (Falcon). For control wells of background (BG) and total phosphorylation (TP), 5 μl of 2.5% DMSO was put. Recombinant IKK-β (final 0.6 μg/ml) and bio-GST-IκBα (1-54) (final 0.2 μM) were diluted in 25 μl of 2×kinase buffer β (40 mM Tris-HCl, pH 7.6, 40 mM MgCl2, 40 mM β-glycerophosphate, 40 mM p-nitrophenylphosphate, 2 mM EDTA, 40 mM creatine phosphate, 2 mM DTT, 2 mM Na3VO4, 0.2 mg/ml BSA and 0.8 mM phenylmethylsulfonyl fluoride) and transferred to the 96-well plate. Bio-GST-IκBα (1-54) in 25 μl of 2×kinase buffer β without IKK-β was transferred to BG wells. Then 20 μl of 12.5 μM ATP, 62.5 μCi/ml [γ-^33P] ATP (Amersham Pharmacia Biotech) was added and the resulting mixture was incubated for 2 hrs at room temperature. The kinase reactions were terminated by the addition of 150 μl of termination buffer (100 mM EDTA, 1 mg/ml BSA, 0.2 mg NaN3). One hundred and fifty μl of the sample were transferred to a streptavidin-coated, white MTP (Steffens Biotechniche Analysen GmbH #08114E14.FWD) to capture the biotinylated substrates. After 1 hr of incubation, non-bound radioactivity was eliminated by washing the wells five times with 300 μl of washing buffer including 0.9% NaCl and 0.1% (w/v) Tween-20 with the use of a MW-96 plate washer (BioTec). The bound radioactivity was determined after the addition of 170 μl MicroScint-PS scintillation cocktail (Packard) using a TopCount scintillation counter. [Syk Tyrosine Kinase Inhibitory Assay for Selectivity] (1) Preparation of Syk Protein • A cDNA fragment encoding human Syk openreading frame was cloned from total RNA of human Burkitt's lymphoma B cell lines, Raji (American Type Culture Collection), with the use of RT-PCR method.
A word on the IC50: it is the concentration needed to halve the response being measured. As to `Nc1nc(-c2ccccc2O)cc2c1CNC2Cc1ccccc1` (stereo in doubt) [Example 20-3, 2-[(1S)-4-amino-1-benzyl-2,3-dihydro-1H-pyrrolo[3,4-c]pyridin-6-yl]phenol hydrochloride], the half-maximal inhibitory concentration (IC50) is less than 500 nM.
On to `N#Cc1c(C2CCCNC2)cc(-c2ccccc2O)nc1N` (stereo not shown) [Example 1-1, 2-amino-6-(2-hydroxyphenyl)-4-(3-piperidinyl)-nicotinonitrile hydrochloride], for which the half-maximal inhibitory concentration (IC50) is less than 500 nM.
On to `N#Cc1c(C2CCNC2)cc(-c2ccccc2O)nc1N` (stereo not shown) [Example 1-2, 2-amino-6-(2-hydroxyphenyl)-4-(3-pirrolidinyl)nicotinonitrile trifluoroacetate], for which the IC50 was less than 500 nM.
In the case of `CC1(c2cc(-c3ccccc3O)nc(N)c2C#N)CCCNC1` (stereo not shown) [Example 1-3, 2-amino-6-(2-hydroxyphenyl)-4-(3-methylpiperidin-3-yl)-nicotinonitrile hydrochloride], the IC50 fell in the range of 500 to 2000 nM.
With `N#Cc1c(N)nc(-c2ccccc2O)c(F)c1C1CCCNC1` (stereo not shown) [Example 1-4, 2-amino-5-fluoro-6-(2-hydroxyphenyl)-4-(3-piperidinyl)-nicotinonitrile trifluoroacetate], the IC50 is less than 500 nM.
Next, `CNC1CCCC(c2cc(-c3ccccc3O)nc(N)c2C#N)C1` (stereo not shown) [Example 1-5, 2-amino-6-(2-hydroxyphenyl)-4-[3-methylamino]cyclohexyl]nicotinonitrile hydrochloride]: less than 500 nM; `N#Cc1c(C2CCCNC2)cc(-c2ncccc2O)nc1N` (stereo not shown) [Example 1-6, 6-amino-3′-hydroxy-4-(3-piperidinyl)-2,2′-bipyridine-5-carbonitrile hydrochloride]: less than 500 nM.
With `N#Cc1c(C2CCCNC2)cc(-c2sccc2O)nc1N` (stereo not shown) [Example 1-7, 2-amino-6-(3-hydroxy-2-thienyl)-4-(3-piperidinyl)nicotinonitrile hydrobromide], the IC50 was less than 500 nM.
`N#Cc1c(C2CCCC(C(=O)O)C2)cc(-c2ccccc2O)nc1N` (stereo not shown) [Example 1-8, 3-[2-amino-3-cyano-6-(2-hydroxyphenyl)-4-pyridinyl]cyclohexanecarboxylic acid]: the IC50 was in the range of 500 to 2000 nM.
With `N#Cc1c(C2=CCCNC2)cc(-c2ccccc2O)nc1N` [Example 1-9, 2′-amino-6′-(2-hydroxyphenyl)-1,2,5,6-tetrahydro-3,4′-bipyridine-3′-carbonitrile hydrochloride], the IC50 is less than 500 nM.
As for `N#Cc1c(C2CCCNC2)cc(-c2c(N)cccc2O)nc1N` (stereo not shown) [Example 1-10, 2-amino-6-(2-amino-6-hydroxyphenyl)-4-(3-piperidinyl)nicotinonitrile hydrochloride], the IC50 fell in the range of 2000 to 10000 nM.
Next, `N#Cc1c(C2CCCNC2)cc(-c2c(O)cccc2NCc2ccccc2)nc1N` (stereo not shown) [Example 1-11, 2-amino-6-[2-(benzylamino)-6-hydroxyphenyl]-4-(3-piperidinyl)nicotinonitrile hydrochloride]: 500 to 2000 nM; `CC(=O)Nc1cccc(O)c1-c1cc(C2CCCNC2)c(C#N)c(N)n1` (stereo not shown) [Example 1-12, N-{2-[6-amino-5-cyano-4-(3-piperidinyl)-2-pyridinyl]-3-hydroxyphenyl}acetamide hydrochloride]: 2000 to 10000 nM; `N#Cc1c(C2CCCNC2)cc(-c2c(O)cccc2O)nc1N` (stereo not shown) [Example 2-1, 2-amino-6-(2,6-dihydroxyphenyl)-4-(3-piperidinyl)nicotinonitrile hydrochloride]: less than 500 nM.
`N#Cc1c(C2CCCNC2)cc(-c2c(O)cccc2OCc2ccccc2)nc1N` (stereo not shown) [Example 2-2, 2-amino-6-[2-(benzyloxy)-6-hydroxyphenyl]-4-(3-piperidinyl)nicotinonitrile hydrochloride]: the IC50 is less than 500 nM.
Next, `N#Cc1c(C2CCNCC2)cc(-c2c(O)cccc2OCC2CC2)nc1N` [Example 2-3, hydrochloride]: less than 500 nM.
The result for `CN1CCCC(c2cc(-c3c(O)cccc3OCC3CC3)nc(N)c2C#N)C1` (stereo not shown) [Example 3-1, 2-amino-6-[2-(cyclopropylmethoxy)-6-hydroxyphenyl]-4-(1-methyl-3-piperidinyl)nicotinonitrile] reads less than 500 nM; that for `N#Cc1c(C2CCCN(Cc3ccccc3)C2)cc(-c2c(O)cccc2OCC2CC2)nc1N` (stereo not shown) [Example 3-2, 2-amino-4-(1-benzyl-3-piperidinyl)-6-[2-(cyclopropylmethoxy)-6-hydroxyphenyl]nicotinonitrile], 2000 to 10000 nM.
`N#Cc1c(C2CCCNC2)cc(-c2ccccc2O)nc1NCc1ccccc1` (stereo not shown) [Example 4-1, 2-(benzylamino)-6-(2-hydroxyphenyl)-4-(3-piperidinyl)nicotinonitrile hydrochloride]: the IC50 is less than 500 nM.
`CCCNc1nc(-c2ccccc2O)cc(C2CCCNC2)c1C#N` (stereo not shown) [Example 4-2, 6-(2-hydroxyphenyl)-4-(3-piperidinyl)-2-(propylamino)nicotinonitrile hydrochloride]: the IC50 is 2000 to 10000 nM.
Next, `CNc1nc(-c2ccccc2O)cc(C2CCCNC2)c1C#N` (stereo not shown) [Example 4-3, 6-(2-hydroxyphenyl)-2-(methylamino)-4-(3-piperidinyl)nicotinonitrile hydrochloride]: 2000 to 10000 nM.
In the case of `N#Cc1c(C2CCCNC2)cc(-c2ccccc2O)nc1Nc1ccccc1` (stereo not shown) [Example 4-4, hydrochloride], the IC50 is greater than 10000 nM.
The result for `Nc1n[nH]c2nc(-c3ccccc3O)cc(C3CCCNC3)c12` (stereo not shown) [Example 5-1, 2-[3-amino-4-(3-piperidinyl)-1H-pyrazolo[3,4-b]pyridin-6-yl]phenol hydrochloride] reads 2000 to 10000 nM.
Next, `CC(=O)Nc1n[nH]c2nc(-c3ccccc3O)cc(C3CCCNC3)c12` (stereo not shown) [Example 5-2, N-[6-(2-hydroxyphenyl)-4-(3-piperidinyl)-1H-pyrazolo[3,4-b]pyridin-3-yl]acetamide hydrochloride]: greater than 10000 nM.
Consider `CC(=O)Nc1nc(-c2ccccc2O)cc(C2CCCNC2)c1C#N` (stereo not shown) [Example 6-1, N-[3-cyano-6-(2-hydroxyphenyl)-4-(3-piperidinyl)-2-pyridinyl]acetamide hydrochloride], for which the IC50 was less than 500 nM.

For the origin of these results see patent US6984649B1, “Pyridine derivatives” (Bayer Aktiengesellschaft, priority 2000, dated 2006).
